Measured values from US20090048260A1, “Use of pyrrolopyrazine derivatives for the production of medicaments for the treatment of mucoviscidosis and diseases related to protein addressing errors in cells” (priority 2004, published 2009).
Values joined by “and” are separate entries in the source; they are usually repeats but may differ in a detail not shown here. Equal values may be shown once. Each block holds one molecule with its values, some of them ahead of it.

How the values were obtained:
delF508-CFTR [1] = molecular target: T1, delF508-CFTR (Homo sapiens, UniProt P13569, DEL508-508); test: iodide efflux, targeting (retargeting) of delF508-CFTR in CF15 cells; assay type: cell-based; conditions: for effect of known CFTR inhibitors on delF508 transport after treatment with aloisine A: CF15 cells treated with aloisine A
T1 construct: endogenous in cells; host or cells: CF15 (homozygous delF508)
Description: (§1) CF15 cells: CF15 cells are human epithelial cells of nasal origin which express the Δ508-CFTR gene.
Next, the quantity of radiotracer which leaves the cell is counted after the addition of various pharmacological agents.
The cells are cultured on 24-well plates in a suitable medium. […] The iodide equilibrates on either side of the cell membrane. A robot (MultiPROBE, Packard) carries out the following steps: the loading medium is rinsed with efflux medium in order to remove the extracellular radioactivity. The supernatant is collected every minute in hemolysis tubes and the medium is replaced with an equivalent volume (500 μl). The samples collected for the first 3 minutes are not supplemented with drug, they make it possible to obtain a stable baseline, characterizing the passive outflow of the I ions. The next 7 samples are obtained in the presence of the molecule to be tested. At the end of the experiment, the cells are lyzed by adding 500 μl of NaOH (0.1 N)/0.1% SDS (30 min), thus, the radioactivity which remained inside the cell may be determined. The radioactivity present in the hemolysis tubes is counted as counts per minute (cpm) using a gamma counter (Cobra II, Packard). The results in cpm are expressed in the form of rate of radioactive iodide outflow (R) according to the following formula: […]
This iodide flow is represented in the form of a curve. In order to quantify the outflow of iodide due to the administration of the molecule tested, the following relative flow is calculated which makes it possible to dispense with the basic flow: relative rate (min^−1)=Rpeak−Rbasal. […] The results are presented in the form of a mean+/−SEM. The student's statistical test is used to compare the effect of the drugs to the controls (the values corresponding to P<0.01 are considered as statistically significant).
The study of the targeting of the delF508-CFTR protein was carried out by combining pharmacological and cell imaging approaches, and biochemical and electrophysiological tests on […] human epithelial cells CF15 homozygous for the delF508 deletion.
For each experiment, the addition of a cocktail (10 μM forskolin+30 μM genistein) allows the activation of CFTR when it is attached to the membrane. Thus, an iodide efflux can be observed if the targeting of delF508 has been restored.

G551D-CFTR = molecular target: T2, G551D-CFTR (Homo sapiens, UniProt P13569, G551D); test: iodide efflux, activation of G551D-CFTR in CHO cells; assay type: cell-based; conditions: CHO cell
T2 construct: expressed in transfected cells; host or cells: CHO cells
Description: (§2) the measurements of chloride ion transport in the cells was carried out with the aid of the radioactive iodide efflux technique (Becq et al., 1999; Dormer et al., 2001). The tracer (^125I) is incorporated into the intracellular medium. Next, the quantity of radiotracer which leaves the cell is counted after the addition of various pharmacological agents. Iodide is used as a tracer for the transport of chloride ions. ^125I further has the advantage of having a short life compared with that of other markers such as ^35Cl (respective ½ life: […] and 300000 years).
(§3) The cells are cultured on 24-well plates in a suitable medium. 2 rinses with efflux medium (NaCl: 136.6 mM, KCl: 5.4 mM, KH2PO4: 0.3 mM, NaH2PO4: 0.3 mM, NaHCO3: 4.2 mM, CaCl2: 1.3 mM, MgCl2: 0.5 mm, MgSO4: 0.4 mM, HEPES: 10 mM, D-glucose: 5.6 mM) are carried out in order to remove the dead cells which release the radioactivity anarchically. […] A robot (MultiPROBE, Packard) carries out the following steps: the loading medium is rinsed with efflux medium in order to remove the extracellular radioactivity. […] At the end of the experiment, the cells are lyzed by adding 500 μl of NaOH (0.1 N)/0.1% SDS (30 min), thus, the radioactivity which remained inside the cell may be determined. The radioactivity present in the hemolysis tubes is counted as counts per minute (cpm) using a gamma counter (Cobra II, Packard). […]

wild-type CFTR (CFTR-WT) = molecular target: T3, wild-type CFTR (CFTR-WT) (Homo sapiens, UniProt P13569); test: iodide efflux, activation of the CFTR chloride channel in CHO cells; assay type: cell-based
T3 construct: expressed in transfected cells; host or cells: CHO (Chinese Hamster Ovary) cells
Description: CHO-WT cells: The CHO (Chinese Hamster Ovary) cells are fibroblasts which have been transfected with the wild-type CFTR (CFTR-WT) gene. These cells will therefore overexpress the CFTR protein.
the measurements of chloride ion transport in the cells was carried out with the aid of the radioactive iodide efflux technique (Becq et al., 1999; Dormer et al., 2001). The tracer (^125I) is incorporated into the intracellular medium. Next, the quantity of radiotracer which leaves the cell is counted after the addition of various pharmacological agents. […]
as §3

CHO-WT cells = test: MTT cytotoxicity test; assay type: cell-based, Chinese Hamster; conditions: various concentrations
Description: The test of toxicity to MTT is a […] test which is based on capacity of mitochondrial dehydrogenases to metabolize MTT (yellow tetrazolium salt) to formazan (purple). The absorbance, which is proportional to the concentration of dye converted, can then be measured by spectrophotometry. […] 3 controls are prepared: 100% living cells: cells without agent; 0% living cells: cells left in the open air; blank: medium without cells. […] Next, they are incubated for 4 h with 100 μl of RPMI solution supplemented with MTT (0.5 mg/ml). The medium is then removed, the addition of 100 μl of DMSO makes it possible to solubilize the dye converted (formazan). The absorbance is measured by spectrophotometry at 570 nm (purple); 630 nm (background). In order to eliminate the background, the following calculation is carried out: DOreal=DO570nm−DO630nm. Next, the results are normalized with respect to the controls (100% and 0% of living cells) and are presented in the form of mean+/−SEM.

[2] = in vivo
delF508-CFTR [3] = molecular target: T1, delF508-CFTR; test: iodide efflux, activation of delF508 in CF15 cells after incubation at 27° C.; assay type: cell-based
Description: as §1, §2
as §3, with “determined.” for “determined. The radioactivity present in the hemolysis tubes is counted as counts per minute (cpm) using a gamma counter (Cobra II, Packard).”

delF508-CFTR [4] = molecular target: T1, delF508-CFTR; test: immunolocalization of delF508-CFTR in CF15 cells (confocal imaging); assay type: cell-based; conditions: 100 μM aloisine A
Description: Immunolabeling makes it possible to reveal the cellular location of the CFTR protein using a primary anti-CFTR antibody (Ab), and then a secondary antibody anti-primary antibody labeled with the fluorophore Cy3.
The cells are inoculated beforehand on cover glass in appropriate culture medium. 3 washes with TBS (NaCl: 157 mM, Tris base: […], pH 7.4) of 5 min each are performed. The cells are then fixed by addition of TBS-paraformaldehyde (3%) for 20 min. After 3 washes with TBS (5 min), the cells are incubated with TBS-triton 0.1% (10 min) which allows the formation of holes in the cell membrane and then 3 washes with TBS are again carried out before bringing the cells into contact with TBS-BSA 0.5%-saponin 0.05% for 1 h. The cells are then incubated with the anti-C-terminal CFTR primary antibody (2 μg/ml) for 1 h. 3 washes with TBS-BSA-saponin of 5 min each are carried out before the incubation with the secondary antibody GAM-cy3 (1/400) for 1 h. Following 2 washes with TBS of 5 min, the nuclei are labeled by incubating with Topro3 (1/1000) for 5 min. Next, the cover glass may be mounted on the slide after 3 final washes with TBS of 5 min. […] In order to distinguish between the Cy3 and Topro3 labeling, the fluorescence color of Topro3 was changed to blue (color of the nuclei).

T1 sequence (P13569 with tags, fused parts or gaps DEL508-508): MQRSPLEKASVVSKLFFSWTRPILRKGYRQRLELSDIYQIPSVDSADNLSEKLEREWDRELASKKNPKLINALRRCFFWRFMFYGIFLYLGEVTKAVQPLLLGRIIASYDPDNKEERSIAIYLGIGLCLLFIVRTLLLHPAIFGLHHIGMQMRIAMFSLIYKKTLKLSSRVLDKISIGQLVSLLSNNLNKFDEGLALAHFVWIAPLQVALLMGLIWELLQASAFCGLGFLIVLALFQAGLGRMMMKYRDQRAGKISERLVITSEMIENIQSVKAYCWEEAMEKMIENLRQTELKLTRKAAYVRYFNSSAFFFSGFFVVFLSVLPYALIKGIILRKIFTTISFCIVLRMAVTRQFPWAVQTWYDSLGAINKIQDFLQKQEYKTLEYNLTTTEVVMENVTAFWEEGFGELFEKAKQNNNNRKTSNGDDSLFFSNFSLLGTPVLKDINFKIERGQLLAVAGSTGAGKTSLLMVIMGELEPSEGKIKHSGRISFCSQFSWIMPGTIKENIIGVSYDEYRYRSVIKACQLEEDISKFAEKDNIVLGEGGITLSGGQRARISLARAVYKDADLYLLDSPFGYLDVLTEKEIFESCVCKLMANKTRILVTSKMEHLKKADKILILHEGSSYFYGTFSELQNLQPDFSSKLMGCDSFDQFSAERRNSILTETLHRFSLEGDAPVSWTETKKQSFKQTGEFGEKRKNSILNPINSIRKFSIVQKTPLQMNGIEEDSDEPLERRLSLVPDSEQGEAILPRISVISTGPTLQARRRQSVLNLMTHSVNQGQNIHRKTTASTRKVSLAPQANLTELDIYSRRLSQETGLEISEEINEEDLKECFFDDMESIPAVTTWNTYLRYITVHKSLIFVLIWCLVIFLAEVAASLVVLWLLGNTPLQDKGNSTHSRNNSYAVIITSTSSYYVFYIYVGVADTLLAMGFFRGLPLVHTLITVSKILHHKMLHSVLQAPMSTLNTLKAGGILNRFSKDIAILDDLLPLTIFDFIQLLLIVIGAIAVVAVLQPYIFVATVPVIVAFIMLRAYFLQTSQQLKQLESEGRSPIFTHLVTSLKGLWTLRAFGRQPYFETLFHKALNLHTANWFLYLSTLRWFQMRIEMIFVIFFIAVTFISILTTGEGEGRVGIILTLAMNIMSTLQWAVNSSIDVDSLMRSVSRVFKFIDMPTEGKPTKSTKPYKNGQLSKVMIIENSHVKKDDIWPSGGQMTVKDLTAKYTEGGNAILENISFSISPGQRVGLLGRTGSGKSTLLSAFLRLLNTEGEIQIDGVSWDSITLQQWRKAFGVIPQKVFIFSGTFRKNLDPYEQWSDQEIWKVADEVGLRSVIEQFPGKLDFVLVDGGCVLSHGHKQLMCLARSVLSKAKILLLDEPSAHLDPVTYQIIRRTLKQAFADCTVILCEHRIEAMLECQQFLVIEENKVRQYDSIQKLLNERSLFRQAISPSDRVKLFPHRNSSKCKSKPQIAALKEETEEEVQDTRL
T3 sequence (P13569 whole entry): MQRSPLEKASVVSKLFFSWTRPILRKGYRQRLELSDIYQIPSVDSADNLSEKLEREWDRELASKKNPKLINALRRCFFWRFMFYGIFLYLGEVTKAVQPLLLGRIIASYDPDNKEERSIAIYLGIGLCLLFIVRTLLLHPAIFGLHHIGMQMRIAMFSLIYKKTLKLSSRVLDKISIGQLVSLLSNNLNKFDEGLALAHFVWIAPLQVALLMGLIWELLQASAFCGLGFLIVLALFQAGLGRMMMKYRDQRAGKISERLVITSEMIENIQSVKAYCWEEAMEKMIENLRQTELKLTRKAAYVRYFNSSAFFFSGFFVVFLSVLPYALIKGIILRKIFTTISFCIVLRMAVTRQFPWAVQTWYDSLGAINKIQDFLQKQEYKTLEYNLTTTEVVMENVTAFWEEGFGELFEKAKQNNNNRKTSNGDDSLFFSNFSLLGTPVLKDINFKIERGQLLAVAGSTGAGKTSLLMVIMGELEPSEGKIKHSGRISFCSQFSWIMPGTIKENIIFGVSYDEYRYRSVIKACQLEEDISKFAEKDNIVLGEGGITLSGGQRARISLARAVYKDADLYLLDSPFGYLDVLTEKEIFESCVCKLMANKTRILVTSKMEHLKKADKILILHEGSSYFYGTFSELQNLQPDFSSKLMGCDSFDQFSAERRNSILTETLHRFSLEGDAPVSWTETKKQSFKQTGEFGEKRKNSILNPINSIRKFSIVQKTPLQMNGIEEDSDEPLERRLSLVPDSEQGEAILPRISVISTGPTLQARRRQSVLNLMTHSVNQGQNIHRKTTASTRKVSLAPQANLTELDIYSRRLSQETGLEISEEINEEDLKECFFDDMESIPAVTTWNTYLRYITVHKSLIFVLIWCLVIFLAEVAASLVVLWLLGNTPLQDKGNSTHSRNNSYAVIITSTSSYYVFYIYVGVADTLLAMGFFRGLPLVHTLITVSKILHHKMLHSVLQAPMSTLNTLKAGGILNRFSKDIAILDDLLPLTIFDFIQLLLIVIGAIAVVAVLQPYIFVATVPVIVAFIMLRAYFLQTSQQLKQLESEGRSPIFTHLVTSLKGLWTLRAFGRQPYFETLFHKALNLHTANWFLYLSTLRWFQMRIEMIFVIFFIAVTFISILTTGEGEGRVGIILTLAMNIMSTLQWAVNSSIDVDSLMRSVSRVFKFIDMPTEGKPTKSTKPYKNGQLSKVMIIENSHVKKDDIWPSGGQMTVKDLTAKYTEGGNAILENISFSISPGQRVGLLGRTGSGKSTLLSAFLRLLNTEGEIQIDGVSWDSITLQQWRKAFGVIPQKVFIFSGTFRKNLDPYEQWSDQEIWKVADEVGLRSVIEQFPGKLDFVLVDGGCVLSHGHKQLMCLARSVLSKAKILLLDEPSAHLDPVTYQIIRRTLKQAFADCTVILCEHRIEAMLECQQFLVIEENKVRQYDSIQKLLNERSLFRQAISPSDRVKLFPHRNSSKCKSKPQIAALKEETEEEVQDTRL
T2 sequence (P13569 whole entry G551D): as the sequence (P13569 whole entry) above, with G551D counted along it

SMILES: C[C@H]1CCC/C=C/[C@@H]2C[C@H](O)C[C@H]2[C@H](O)/C=C/C(=O)O1 [Brefeldin A]
competition with aloisine A: effect on the aloisine A-induced retargeting of delF508-CFTR (delF508-CFTR [1]; iodide efflux, CF15 cells): inhibition

SMILES: O=S(=O)(O)c1cc(N=C=S)ccc1C=Cc1ccc(N=C=S)cc1S(=O)(=O)O [DIDS]
effect of known CFTR inhibitors on delF508 transport after treatment with aloisine A (delF508-CFTR [1]): insensitive

SMILES: COc1ccc(Cl)cc1C(=O)NCCc1ccc(S(=O)(=O)NC(=O)NC2CCCCC2)cc1 [glibenclamide]
effect of known CFTR inhibitors on delF508 transport after treatment with aloisine A (delF508-CFTR [1]): blocked

Second part, led by results:

effect of known CFTR inhibitors on delF508 transport after treatment with aloisine A (delF508-CFTR [1]): blocked
SMILES: O=C(O)c1ccccc1Nc1ccccc1 [DPC]

delF508-CFTR activity after treatment (delF508-CFTR [1]; CF15 cells, 100 μM, 2 h treatment, 37° C.): restored
EC50 (delF508-CFTR [1]; CF15 cells, 2 h treatment, then 10 μM forskolin+30 μM genistein, read-out: EC50 of retargeting of delF508-CFTR (restored iodide efflux)): 50 µM and 49 µM
EC50 (G551D-CFTR): 1.5 nM
EC50 (wild-type CFTR (CFTR-WT)): 152 nM
EC50 (delF508-CFTR [3]): 110 nM
SMILES: CCCCc1c(-c2ccc(O)cc2)[nH]c2nccnc12 [aloisine A]
cell viability (MTT) (CHO-WT cells; 2 h incubation): viable for all the concentrations
cell viability (MTT) (CHO-WT cells; 24 h incubation): viable for all the concentrations
toxicity on animals [2]: very low toxicity
localization of the delF508 protein (delF508-CFTR [4]): redirect the delF508 protein to the membrane
